According to US10316079B2, “Monoclonal antibody against muramyl peptides” (priority 2012, dated 2019):

Key:
[1] = system: binding of 2E7 to N-acetylmuramyl-L-alanyl-D-isoglutamine conjugated to OVA; assay: Competitive ELISA for antigen specificity of 2E7; parameters: species or system mouse; conditions: concentration dependent, compared with N-acetylmuramyl-L-alanyl-D-isoglutamine
From the text: To enhance the antigenicity of the MDPs, these molecules were conjugated to the human serum albumin (HSA) using a linker molecule. The carboxylic acid moiety of MDPs was first coupled to N-Boc-ethylenediamine, and then the Boc protection group was removed and the resulting amine was linked to HSA with glutaraldehyde. […] The MDP-HSA conjugates were then used to immunize BALB/c mice. Serum antigen-specific titers of the immunized mice were examined by enzyme-linked immunosorbent assay (ELISA) against MDPs conjugated to ovalbumin (OVA) using the same linkage strategy as described above. Generation of hybridoma cell lines, screening of antibody-producing clones, preparation and purification of mAbs, and mAb isotyping were carried out by following standard protocols. Antigen specificity of a mAb was determined using competitive ELISA to test the ability of different MDPs and constituent moieties to inhibit the binding of a mAb to the MDP originally used as antigen for immunization.

Escherichia coli = assay: MPs released into culture supernatant with amoxicillin, competitive ELISA using 2E7; assay type: cell-based; conditions: 40 μg per ml amoxicillin added at OD600=1.5; vs untreated culture
Method: (§1) Power Fit equation y=a*(x−b)^c using CurveExpert Basic. The standard curve was used to determine the peptidoglycan to concentration in a sample. […] Both bacteria were grown to OD600=1.5. Each culture was divided into two, and one treated with 40 μg/ml amoxicillin (Atex) and the other untreated. Aliquots were collected at the indicated times and the amount of MPs in the supernatant was determined by competitive ELISA. […] After removing unbound antibodies by PBS washes, the cells were incubated with a FITC-labeled anti-mouse IgG Ab before fluorescence microscopic examination.
(§2) For this test, Gram-positive bacterium Staphylococcus aureus, which has a thick peptidoglycan layer, and […] Escherichia coli, which has a thin peptidoglycan layer, were selected and grown in the presence or absence of amoxicillin. The culture was grown to a density of OD600=1.5 and then divided into two equal aliquots. To one aliquot, amoxicillin was added to a final concentration of 40 μg per ml, and to the other aliquot, no drug was added. Both cultures were allowed to continue to grow. Aliquots of cultures were collected at timed intervals and cells were removed by centrifugation. The amount of MPs in the supernatant was determined by competitive ELISA using 2E7.

Staphylococcus aureus = assay: as above; assay type: cell-based; conditions: 40 μg per ml amoxicillin added at OD600=1.5; vs untreated culture
Method: as §1, §2

[2] = system: bacteria of the mouse microbiota; assay: Blood MP level in mice fed amoxicillin, competitive ELISA using 2E7; assay type: in vivo; conditions: amoxicillin 100 mg/kg fed at 12-h intervals, 4 h after each feeding
Method: Amoxicillin was administered orally to 50 mice at 12-h intervals and three mice were sacrificed every 4 h to collect blood for peptidoglycan quantification by ELISA. […] Serial blood samples were taken. Time for blood draw and IV injection are indicated.
The MP level in serum was determined by competitive ELISA using an example of the antibody of the present disclosure, i.e. 2E7.

Compound: CC(=O)N[C@H]1C(O)O[C@H](CO)[C@@H](O)[C@@H]1O[C@H](C)C(=O)N[C@H](C)C(=O)N[C@H](CCC(=O)O)C(=O)O (stereo partly drawn) [N-acetylmuramyl-L-alanyl-D-glutamate]
- inhibition of 2E7 binding to N-acetylmuramyl-L-alanyl-D-isoglutamine conjugated to OVA [1]: almost as effectively as N-acetylmuramyl-L-alanyl-D-isoglutamine

Compound: CC1(C)S[C@@H]2[C@H](NC(=O)[C@H](N)c3ccc(O)cc3)C(=O)N2[C@H]1C(=O)O [amoxicillin]
- molecules in culture medium that inhibit 2E7 binding to N-acetylmuramyl-L-alanyl-D-isoglutamine (MPs) (Escherichia coli): sharp increase
- molecules in culture medium that inhibit 2E7 binding to N-acetylmuramyl-L-alanyl-D-isoglutamine (MPs) (Staphylococcus aureus): sharp increase
- increase in the blood MP level [2]: 20-60%

Compound: CC(NC(=O)C(C)OC1C(N)C(O)OC(CO)C1O)C(=O)NC(CCC(=O)O)C(=O)O [muramyl-L-alanyl-D-glutamate]
- inhibition of 2E7 binding to N-acetylmuramyl-L-alanyl-D-isoglutamine conjugated to OVA [1]: almost as effectively as N-acetylmuramyl-L-alanyl-D-isoglutamine

Compound: muramyl-L-alanyl-D-isoglutamine
- inhibition of 2E7 binding to N-acetylmuramyl-L-alanyl-D-isoglutamine conjugated to OVA [1]: almost as effectively as N-acetylmuramyl-L-alanyl-D-isoglutamine
